{"source": "patent US12655116B2", "about": "“Substituted isophthalic acid diamides” (Bayer Aktiengesellschaft, priority 2020, dated 2026)", "key": {"[1]": {"system": "POLCO", "experiment": "Post-emergence herbicidal action against POLCO", "type": "in vivo, Polygonum convolvulus", "conditions": "dosage 20 g/ha", "outline": "(§1)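 A WP or EC formulation diluted in water with 0.2% wetting agent was sprayed at 600 to 800 l/ha onto one-leaf-stage plants grown in sandy loam. About 3 weeks later, action was rated visually in percent, 100% being dead plants.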"}, "[2]": {"system": "SETVI", "experiment": "Pre-emergence herbicidal action against SETVI", "type": "in vivo, Setaria viridis", "conditions": "Setaria viridis, 504 h, dosage 80 g/ha", "outline": "(§2)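 Greenhouse pots of sandy loam held seeds covered with soil, onto which the compound was applied before emergence. An aqueous suspension or emulsion of WP or EC was used at 600 to 800 l/ha with 0.2% wetting agent. Percent damage was judged visually at 3 weeks.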"}, "[3]": {"system": "ALOMY", "experiment": "Post-emergence herbicidal action against ALOMY", "type": "in vivo, Alopecurus myosuroides", "conditions": "Alopecurus myosuroides, 504 h, dosage 20 g/ha, visual assessment about 3 weeks after treatment vs untreated controls", "outline": "as §1"}, "[4]": {"system": "AMARE", "experiment": "Post-emergence herbicidal action against AMARE", "type": "in vivo, Amaranthus retroflexus", "conditions": "20 g/ha, visual assessment about 3 weeks after treatment, 100% = plants have died, 0% = like control plants", "outline": "as §1"}, "[5]": {"system": "AMARE", "experiment": "Pre-emergence herbicidal action against AMARE", "type": "in vivo, Amaranthus retroflexus", "outline": "as §2"}, "[6]": {"system": "SETVI", "experiment": "Post-emergence herbicidal action against SETVI", "type": "in vivo, Setaria viridis", "conditions": "Setaria viridis, 504 h", "outline": "as §1"}, "[7]": {"system": "VIOTR", "experiment": "Post-emergence herbicidal action against VIOTR", "type": "in vivo, Viola tricolor", "outline": "as §1"}, "[8]": {"system": "ABUTH", "experiment": "Pre-emergence herbicidal action against ABUTH", "type": "in vivo, Abutilon theophrasti", "conditions": "80 g/ha, scored visually after 3 weeks vs untreated controls (100% = plants have died, 0% = like control plants)", "outline": "as §2"}, "[9]": {"system": "ALOMY", "experiment": "Pre-emergence herbicidal action against ALOMY", "type": "in vivo, Alopecurus myosuroides", "conditions": "Alopecurus myosuroides, 504 h, pre-emergence", "outline": "as §2"}, "[10]": {"system": "LOLRI", "experiment": "Pre-emergence herbicidal action against LOLRI", "type": "in vivo, Lolium rigidum", "conditions": "Lolium rigidum, 504 h, 80 g/ha", "outline": "as §2"}, "[11]": {"system": "AVEFA", "experiment": "Pre-emergence herbicidal action against AVEFA", "type": "in vivo, Avena fatua", "conditions": "80 g/ha, pre-emergence", "outline": "as §2"}, "[12]": {"system": "DIGSA", "experiment": "Pre-emergence herbicidal action against DIGSA", "type": "in vivo, Digitaria sanguinalis", "outline": "as §2"}, "[13]": {"system": "MATIN", "experiment": "Post-emergence herbicidal action against MATIN", "type": "in vivo, Matricaria inodora", "conditions": "Tripleurospermum inodorum, 504 h", "outline": "as §1"}, "[14]": {"system": "ABUTH", "experiment": "Post-emergence herbicidal action against ABUTH", "type": "in vivo, Abutilon theophrasti", "conditions": "dosage 20 g/ha, visual assessment about 3 weeks after treatment vs untreated controls", "outline": "as §1"}, "[15]": {"system": "VERPE", "experiment": "Pre-emergence herbicidal action against VERPE", "type": "in vivo, Veronica persica", "conditions": "dosage 80 g/ha", "outline": "as §2"}, "[16]": {"system": "MATIN", "experiment": "Pre-emergence herbicidal action against MATIN", "type": "in vivo, Matricaria inodora", "outline": "as §2"}, "[17]": {"system": "PHBPU", "experiment": "Pre-emergence herbicidal action against PHBPU", "type": "in vivo, Pharbitis purpurea", "conditions": "Ipomoea purpurea, 504 h, dosage 80 g/ha", "outline": "as §2"}, "[18]": {"system": "PHBPU", "experiment": "Post-emergence herbicidal action against PHBPU", "type": "in vivo, Pharbitis purpurea", "conditions": "Ipomoea purpurea, 504 h, dosage 20 g/ha", "outline": "as §1"}, "[19]": {"system": "ECHCG", "experiment": "Post-emergence herbicidal action against ECHCG", "type": "in vivo, Echinochloa crus-galli", "conditions": "Echinochloa crus-galli, 504 h, dosage 20 g/ha", "outline": "as §1"}, "[20]": {"system": "ECHCG", "experiment": "Pre-emergence herbicidal action against ECHCG", "type": "in vivo, Echinochloa crus-galli", "conditions": "Echinochloa crus-galli, 504 h, 80 g/ha", "outline": "as §2"}, "[21]": {"system": "VIOTR", "experiment": "Pre-emergence herbicidal action against VIOTR", "type": "in vivo, Viola tricolor", "outline": "as §2"}, "[22]": {"system": "STEME", "experiment": "Post-emergence herbicidal action against STEME", "type": "in vivo, Stellaria media", "conditions": "20 g/ha", "outline": "as §1"}, "[23]": {"system": "STEME", "experiment": "Pre-emergence herbicidal action against STEME", "type": "in vivo, Stellaria media", "outline": "as §2"}, "[24]": {"conditions": "80 g/ha, scored visually after 3 weeks vs untreated controls (100% = plants have died, 0% = like control plants)"}}}
{"smiles": "CCn1nnnc1NC(=O)c1ccc(Br)c(C(=O)NC2CC2)c1Cl", "note": "[Example 2-179]", "values": [{"measurement": "pest or weed control at 20 g/ha", "setting": "[1]; Fallopia convolvulus, 504 h", "result": 90, "unit": "%"}, {"measurement": "pest or weed control at 80 g/ha", "setting": "[2]", "result": 100, "unit": "%"}, {"measurement": "pest or weed control at 20 g/ha", "setting": "[3]", "result": 90, "unit": "%"}, {"measurement": "pest or weed control at 20 g/ha", "setting": "[4]; Amaranthus retroflexus, 504 h", "result": 100, "unit": "%"}, {"measurement": "pest or weed control at 20 g/ha", "setting": "[5]; Amaranthus retroflexus, 504 h, 20 g/ha, scored visually after 3 weeks vs untreated controls, 100% = plants have died, 0% = like control plants", "result": 100, "unit": "%"}, {"measurement": "pest or weed control at 80 g/ha", "setting": "[5]; Amaranthus retroflexus, 504 h, 80 g/ha, scored visually after 3 weeks vs untreated controls, 100% = plants have died, 0% = like control plants", "result": 100, "unit": "%"}, {"measurement": "pest or weed control at 5 g/ha", "setting": "[6]; dosage 5 g/ha", "result": 90, "unit": "%"}, {"measurement": "pest or weed control at 20 g/ha", "setting": "[6]; dosage 20 g/ha", "result": 90, "unit": "%"}, {"measurement": "pest or weed control at 5 g/ha", "setting": "[7]; Viola tricolor, 504 h, 5 g/ha", "result": 90, "unit": "%"}, {"measurement": "pest or weed control at 20 g/ha", "setting": "[7]; Viola tricolor, 504 h, 20 g/ha", "result": 100, "unit": "%"}, {"measurement": "pest or weed control at 80 g/ha", "setting": "[8]; Abutilon theophrasti, 504 h", "result": 100, "unit": "%"}, {"measurement": "pest or weed control at 80 g/ha", "setting": "[9]; [24]", "result": 100, "unit": "%"}, {"measurement": "pest or weed control at 20 g/ha", "setting": "[9]; 20 g/ha, scored visually after 3 weeks, 100% = plants have died, 0% = like control plants", "result": 80, "unit": "%"}, {"measurement": "pest or weed control at 80 g/ha", "setting": "[10]", "result": 80, "unit": "%"}, {"measurement": "pest or weed control at 80 g/ha", "setting": "[11]; Avena fatua, 504 h", "result": 100, "unit": "%"}, {"measurement": "pest or weed control at 20 g/ha", "setting": "[12]; Digitaria sanguinalis, 504 h, dosage 20 g/ha", "result": 100, "unit": "%"}, {"measurement": "pest or weed control at 80 g/ha", "setting": "[12]; Digitaria sanguinalis, 504 h, dosage 80 g/ha", "result": 100, "unit": "%"}, {"measurement": "pest or weed control at 5 g/ha", "setting": "[13]; dosage 5 g/ha", "result": 80, "unit": "%"}, {"measurement": "pest or weed control at 20 g/ha", "setting": "[13]; dosage 20 g/ha", "result": 90, "unit": "%"}, {"measurement": "pest or weed control at 20 g/ha", "setting": "[14]; Abutilon theophrasti, 504 h", "result": 90, "unit": "%"}, {"measurement": "pest or weed control at 80 g/ha", "setting": "[15]; Veronica persica, 504 h", "result": 90, "unit": "%"}, {"measurement": "pest or weed control at 20 g/ha", "setting": "[16]; Tripleurospermum inodorum, 504 h, dosage 20 g/ha", "result": 100, "unit": "%"}, {"measurement": "pest or weed control at 80 g/ha", "setting": "[16]; Tripleurospermum inodorum, 504 h, dosage 80 g/ha", "result": 100, "unit": "%"}, {"measurement": "pest or weed control at 80 g/ha", "setting": "[17]", "result": 80, "unit": "%"}, {"measurement": "pest or weed control at 20 g/ha", "setting": "[18]", "result": 80, "unit": "%"}, {"measurement": "pest or weed control at 20 g/ha", "setting": "[19]", "result": 80, "unit": "%"}, {"measurement": "pest or weed control at 80 g/ha", "setting": "[20]", "result": 100, "unit": "%"}, {"measurement": "pest or weed control at 20 g/ha", "setting": "[21]; Viola tricolor, 504 h, dosage 20 g/ha", "result": 100, "unit": "%"}, {"measurement": "pest or weed control at 80 g/ha", "setting": "[21]; Viola tricolor, 504 h, dosage 80 g/ha", "result": 100, "unit": "%"}]}
{"smiles": "CCCn1nnnc1NC(=O)c1ccc(S(C)(=O)=O)c(C(=O)NC2CC2)c1Cl", "note": "[Example 3-125]", "values": [{"measurement": "Post-emergence action against POLCO in %", "setting": "[1]", "result": 80, "unit": "%"}, {"measurement": "Post-emergence action at 20 g/ha against AMARE in %", "setting": "[4]", "result": 90, "unit": "%"}, {"measurement": "Pre-emergence action against AMARE in %", "setting": "[5]; [24]", "result": 100, "unit": "%"}, {"measurement": "Post-emergence action against VIOTR in %", "setting": "[7]; 20 g/ha", "result": 80, "unit": "%"}, {"measurement": "Pre-emergence action against ABUTH (herbicidal activity)", "setting": "[8]", "result": 100, "unit": "%"}, {"measurement": "Pre-emergence action against AVEFA in %", "setting": "[11]", "result": 80, "unit": "%"}, {"measurement": "Pre-emergence action against DIGSA in %", "setting": "[12]; dosage 80 g/ha", "result": 80, "unit": "%"}, {"measurement": "Post-emergence action against STEME in %", "setting": "[22]", "result": 80, "unit": "%"}, {"measurement": "Post-emergence action against ABUTH in %", "setting": "[14]", "result": 80, "unit": "%"}, {"measurement": "Pre-emergence action against VERPE in %", "setting": "[15]", "result": 80, "unit": "%"}, {"measurement": "Pre-emergence action against MATIN in %", "setting": "[16]; dosage 20 g/ha", "result": 100, "unit": "%"}, {"measurement": "Pre-emergence action against MATIN in %", "setting": "[16]; dosage 80 g/ha", "result": 100, "unit": "%"}, {"measurement": "Pre-emergence action against STEME in %", "setting": "[23]; dosage 20 g/ha", "result": 90, "unit": "%"}, {"measurement": "Pre-emergence action against STEME in %", "setting": "[23]; dosage 80 g/ha", "result": 100, "unit": "%"}, {"measurement": "Pre-emergence action against VIOTR in %", "setting": "[21]; dosage 80 g/ha", "result": 100, "unit": "%"}]}
